{"source": "ChEMBL document CHEMBL5370535", "about": "“Thiazolyl hydrazineylidenyl indolones as unique potential multitargeting broad-spectrum antimicrobial agents” (Eur J Med Chem, 2023)", "key": {"[1]": {"test_system": "Klebsiella pneumoniae", "experiment": "Antibacterial activity against Klebsiella pneumoniae assessed as bacterial growth inhibition incubated for 24 hrs by CLSI based two serial dilution assay", "assay_type": "functional"}, "[2]": {"test_system": "Cell membrane", "experiment": "Induction of cell membrane permeability in Staphylococcus aureus assessed as increase in fluorescence intensity measured upto 135 mins by propidium iodide staining based fluorescence assay", "assay_type": "subcellular"}, "[3]": {"test_system": "Candida albicans", "experiment": "Antifungal activity against Candida albicans assessed as inhibition of fungal growth incubated for 24 hrs by CLSI based two serial dilution assay", "assay_type": "functional"}, "[4]": {"test_system": "Escherichia coli", "experiment": "Antibacterial activity against Escherichia coli 25922 assessed as bacterial growth inhibition incubated for 24 hrs by CLSI based two serial dilution assay", "assay_type": "functional"}, "[5]": {"experiment": "Cytotoxicity against human BEAS-2B cells assessed as survival rate at 0.5 to 64 microg/ml incubated for 24 hrs by MTT assay", "assay_type": "toxicity, cell-based", "settings": "at 0.5 to 64 µg/mL, dose 0.5-64 µg/ml, read-out: Activity"}, "[6]": {"test_system": "Candida albicans", "experiment": "Antifungal activity against Candida albicans ATCC 90023 assessed as inhibition of fungal growth incubated for 24 hrs by CLSI based two serial dilution assay", "assay_type": "functional"}, "[7]": {"test_system": "Calf thymus DNA", "experiment": "Competitive binding affinity to calf thymus DNA assessed as compound-DNA complex formation upto 2 10^-5mol/L in presence of neutral red by UV/vis spectrophotometric analysis", "assay_type": "nucleic-acid assay", "settings": "Bos taurus"}, "[8]": {"test_system": "Staphylococcus aureus", "experiment": "Antibiofilm activity against methicillin-resistant Staphylococcus aureus assessed as biofilm eradication incubated for 24 hrs by crystal violet staining based assay", "assay_type": "functional, organism-based", "settings": "dose 1-16 µg/ml"}, "[9]": {"test_system": "Staphylococcus aureus", "experiment": "Induction of morphological changes in methicillin-resistant Staphylococcus aureus assessed as cracking of cells at 4 times MIC incubated for 4 hrs by scanning electron microscopic analysis", "assay_type": "functional, organism-based"}, "[10]": {"test_system": "Staphylococcus aureus", "experiment": "Antibacterial activity against Staphylococcus aureus 29213 assessed as bacterial growth inhibition incubated for 24 hrs by CLSI based two serial dilution assay", "assay_type": "functional"}, "[11]": {"test_system": "Staphylococcus aureus", "experiment": "Antibiofilm activity against methicillin-resistant Staphylococcus aureus assessed as inhibition of biofilm formation at 4 microg/ml incubated for 24 hrs by crystal violet staining based assay", "assay_type": "functional", "set-up": "scale not given: the % may be the effect or the level left", "settings": "dose 4 µg/ml"}, "[12]": {"test_system": "Candida tropicalis", "experiment": "Antifungal activity against Candida tropicalis assessed as inhibition of fungal growth incubated for 24 hrs by CLSI based two serial dilution assay", "assay_type": "functional"}, "[13]": {"test_system": "Pseudomonas aeruginosa", "experiment": "Antibacterial activity against Pseudomonas aeruginosa ATCC 27853 assessed as bacterial growth inhibition incubated for 24 hrs by CLSI based two serial dilution assay", "assay_type": "functional"}, "[14]": {"test_system": "Cell membrane", "experiment": "Induction of cell membrane disruption in methicillin-resistant Staphylococcus aureus assessed as increase in protein leakage at 16 microg/ml incubated for 8 hrs", "assay_type": "subcellular", "settings": "dose 16.0 µg/ml"}, "[15]": {"test_system": "Calf thymus DNA", "experiment": "Binding affinity to calf thymus DNA by UV/vis spectrophotometric analysis", "assay_type": "nucleic-acid assay", "settings": "Bos taurus; dose 4.0 10^-5mol/L"}, "[16]": {"test_system": "Pseudomonas aeruginosa", "experiment": "Antibacterial activity against Pseudomonas aeruginosa assessed as bacterial growth inhibition incubated for 24 hrs by CLSI based two serial dilution assay", "assay_type": "functional"}, "[17]": {"test_system": "Candida parapsilosis", "experiment": "Antifungal activity against Candida parapsilosis ATCC 22019 assessed as inhibition of fungal growth incubated for 24 hrs by CLSI based two serial dilution assay", "assay_type": "functional", "settings": "Lodderomyces parapsilosis"}, "[18]": {"test_system": "Staphylococcus aureus", "experiment": "Bactericidal activity against methicillin-resistant Staphylococcus aureus assessed as increase in apoptotic cells at 4 times MIC by fluorescence microscopic analysis", "assay_type": "functional, organism-based", "settings": "time <= 250.0 min"}, "[19]": {"test_system": "Staphylococcus aureus", "experiment": "Antibacterial activity against Staphylococcus aureus 25923 assessed as bacterial growth inhibition incubated for 24 hrs by CLSI based two serial dilution assay", "assay_type": "functional"}, "[20]": {"test_system": "Staphylococcus aureus", "experiment": "Bactericidal activity against methicillin-resistant Staphylococcus aureus assessed as increase in apoptotic cells by measuring red fluorescence intensity at 4 times MIC measured upto 250 min by fluorescence microscopic analysis", "assay_type": "functional, organism-based"}, "[21]": {"test_system": "Cell membrane", "experiment": "Induction of membrane depolarization in methicillin-resistant Staphylococcus aureus assessed as increase in fluorescence intensity at 1 times MIC by DiSC35 dye-based fluorescence assay", "assay_type": "subcellular", "settings": "time 1.0 hrs, TDE = time-dependent effect"}, "[22]": {"test_system": "Calf thymus DNA", "experiment": "Binding affinity to calf thymus DNA assessed as compound-DNA complex formation at 4 10^-5mol/L by UV/vis spectrophotometric analysis", "assay_type": "nucleic-acid assay", "settings": "Bos taurus"}, "[23]": {"test_system": "Cell membrane", "experiment": "Induction of membrane depolarization in methicillin-resistant Staphylococcus aureus assessed as increase in fluorescence intensity at 4 times MIC measured at 5 min by DiSC35 dye-based fluorescence assay", "assay_type": "subcellular"}, "[24]": {"test_system": "Staphylococcus aureus", "experiment": "Bactericidal activity against methicillin-resistant Staphylococcus aureus assessed as reduction in viable bacteria at 4 times MIC measured at 30 mins by fluorescence microscopic analysis", "assay_type": "functional, organism-based"}, "[25]": {"test_system": "Staphylococcus aureus", "experiment": "Induction of morphological changes in methicillin-resistant Staphylococcus aureus assessed as membrane deformations at 4 times MIC incubated for 4 hrs by scanning electron microscopic analysis", "assay_type": "functional, organism-based"}, "[26]": {"test_system": "Acinetobacter baumannii", "experiment": "Antibacterial activity against Acinetobacter baumannii assessed as bacterial growth inhibition incubated for 24 hrs by CLSI based two serial dilution assay", "assay_type": "functional"}, "[27]": {"test_system": "Staphylococcus aureus", "experiment": "Antibacterial activity against Staphylococcus aureus assessed as bacterial growth inhibition incubated for 24 hrs by CLSI based two serial dilution assay", "assay_type": "functional"}, "[28]": {"experiment": "Hemolytic activity in human RBC assessed as hemolysis at 64 microg/ml incubated for 2 hrs by double-dilution analysis", "assay_type": "toxicity, cell-based, Erythrocyte", "settings": "red blood cells (erythrocytes), at 64 µg/mL, read-out: Activity"}, "[29]": {"test_system": "Enterococcus faecalis", "experiment": "Antibacterial activity against Enterococcus faecalis assessed as bacterial growth inhibition incubated for 24 hrs by CLSI based two serial dilution assay", "assay_type": "functional"}, "[30]": {"test_system": "Staphylococcus aureus", "experiment": "Antibiofilm activity against methicillin-resistant Staphylococcus aureus assessed as decrease in metabolic activity at 1 to 16 microg/ml measured for 6 hrs by alamar blue staining based assay", "assay_type": "functional, organism-based", "settings": "dose 1-16 µg/ml"}, "[31]": {"test_system": "Aspergillus fumigatus", "experiment": "Antifungal activity against Aspergillus fumigatus assessed as inhibition of fungal growth incubated for 24 hrs by CLSI based two serial dilution assay", "assay_type": "functional"}, "[32]": {"test_system": "Staphylococcus aureus", "experiment": "Antibacterial activity against methicillin-resistant Staphylococcus aureus assessed as bacterial growth inhibition incubated for 24 hrs by CLSI based two serial dilution assay", "assay_type": "functional"}, "[33]": {"test_system": "Escherichia coli", "experiment": "Antibacterial activity against Escherichia coli assessed as bacterial growth inhibition incubated for 24 hrs by CLSI based two serial dilution assay", "assay_type": "functional"}}, "note": "Activity calls are given as the source filed them. The rule behind the calls is not given here."}
{"smiles": "CCCCN1C(=O)/C(=N\\Nc2nccs2)c2ccccc21", "values": [{"measurement": "MIC", "setting": "[1]", "result": 0.25, "unit": "µM"}, {"measurement": "Activity", "setting": "[2]", "result": "Active"}, {"measurement": "MIC", "setting": "[3]", "result": 0.5, "unit": "µM"}, {"measurement": "MIC", "setting": "[4]", "result": 0.25, "unit": "µM"}, {"measurement": "viability at 24 h", "setting": "[5]", "result": "> 75", "unit": "%"}, {"measurement": "MIC", "setting": "[6]", "result": 0.5, "unit": "µM"}, {"measurement": "Activity", "setting": "[7]", "result": "Active"}, {"measurement": "Activity", "setting": "[8]", "result": "Dose-Dependent Effect"}, {"measurement": "Activity", "setting": "[9]", "result": "Active"}, {"measurement": "MIC", "setting": "[10]", "result": 0.25, "unit": "µM"}, {"measurement": "Activity", "setting": "[11]", "result": 30, "unit": "%"}, {"measurement": "MIC", "setting": "[12]", "result": 0.5, "unit": "µM"}, {"measurement": "MIC", "setting": "[13]", "result": 0.5, "unit": "µM"}, {"measurement": "Activity", "setting": "[14]", "result": "Active"}, {"measurement": "Activity", "setting": "[15]", "result": "Dose-Dependent Effect"}, {"measurement": "MIC", "setting": "[16]", "result": 0.5, "unit": "µM"}, {"measurement": "MIC", "setting": "[17]", "result": 0.5, "unit": "µM"}, {"measurement": "Activity", "setting": "[18]", "result": "Active"}, {"measurement": "MIC", "setting": "[19]", "result": 0.25, "unit": "µM"}, {"measurement": "Activity", "setting": "[20]", "result": "inactive"}, {"measurement": "Activity", "setting": "[21]", "result": "Tde"}, {"measurement": "Activity", "setting": "[22]", "result": "Active"}, {"measurement": "Activity", "setting": "[23]", "result": "Active"}, {"measurement": "Activity", "setting": "[24]", "result": "Active"}, {"measurement": "Activity", "setting": "[25]", "result": "Active"}, {"measurement": "MIC", "setting": "[26]", "result": 1, "unit": "µM"}, {"measurement": "MIC", "setting": "[27]", "result": 0.5, "unit": "µM"}, {"measurement": "hemolysis at 2 h, 64 µg/mL", "setting": "[28]", "result": "< 5", "unit": "%"}, {"measurement": "MIC", "setting": "[29]", "result": 0.5, "unit": "µM"}, {"measurement": "Activity", "setting": "[30]", "result": "Active"}, {"measurement": "MIC", "setting": "[31]", "result": 1, "unit": "µM"}, {"measurement": "MIC", "setting": "[32]", "result": 0.25, "unit": "µM"}, {"measurement": "MIC", "setting": "[33]", "result": 0.5, "unit": "µM"}]}
